Data from patent US7446199B2, “Compositions useful as inhibitors of protein kinases” (Vertex Pharmaceuticals Incorporated, priority 2003, dated 2008).

target: T1, c-KIT (Homo sapiens, UniProt P10721); assay: Inhibition of c-KIT, radiometric filter-binding assay; format: biochemical; details: 700 μM ATP, 0.5 mg/mL pE4Y, room temperature
T1 construct: 0.02% BSA and 25 nM c-KIT
Experimental: Compounds are screened for their ability to inhibit c-KIT activity using a radiometric filter-binding assay. This assay monitors the ^33P incorporation into a substrate poly(Glu, Tyr) 4:1 (pE4Y). Reactions are carried out in a solution containing 100 mM HEPES (pH 7.5), 10 mM MgCl2, 25 mM NaCl, 1 mM DTT, 0.01% BSA and 2.5% DMSO. Final substrate concentrations in the assay were 700 μM ATP and 0.5 mg/mL pE4Y (both from Sigma Chemicals, St Louis, Mo.). The final concentration of compounds is generally between 0.01 and 5 μM. Typically, a 12-point titration is conducted by preparing serial dilutions from 10 mM DMSO stock of test compound. Reactions were carried out at room temperature.
Two assay solutions are prepared. Solution 1 contains 100 mM HEPES (pH 7.5), 10 mM MgCl2, 25 mM NaCl, 1 mg/ml pE4Y and 1.4 mM ATP(containing 0.5 μCi of [γ-^33P]ATP for each reaction). Solution 2 contains 100 mM HEPES (pH 7.5), 10 mM MgCl2, 25 mM NaCl, 2 mM DTT, 0.02% BSA and 25 nM c-KIT. The assay is run on a 96 well plate by mixing 33 μL of Solution1 and 1.65 μL of the test compounds. The reaction is initiated with 33 μL of Solution2. After incubation for 20 minutes at room temperature, the reaction was stopped with 50 μL of 10% TCA containing 0.2 mM of ATP. All of the reaction volume is then transferred to a filter plate and washed with 5% TCA by a Harvester9600 from TOMTEC (Hamden, Conn.). The amount of ^33P incorporation into pE4y is analyzed by a Packard TopCount Microplate Scintillation Counter (Meriden, Conn.). The data is fitted using Prism software to get an IC50 or Ki.

T1 sequence (P10721 26-976): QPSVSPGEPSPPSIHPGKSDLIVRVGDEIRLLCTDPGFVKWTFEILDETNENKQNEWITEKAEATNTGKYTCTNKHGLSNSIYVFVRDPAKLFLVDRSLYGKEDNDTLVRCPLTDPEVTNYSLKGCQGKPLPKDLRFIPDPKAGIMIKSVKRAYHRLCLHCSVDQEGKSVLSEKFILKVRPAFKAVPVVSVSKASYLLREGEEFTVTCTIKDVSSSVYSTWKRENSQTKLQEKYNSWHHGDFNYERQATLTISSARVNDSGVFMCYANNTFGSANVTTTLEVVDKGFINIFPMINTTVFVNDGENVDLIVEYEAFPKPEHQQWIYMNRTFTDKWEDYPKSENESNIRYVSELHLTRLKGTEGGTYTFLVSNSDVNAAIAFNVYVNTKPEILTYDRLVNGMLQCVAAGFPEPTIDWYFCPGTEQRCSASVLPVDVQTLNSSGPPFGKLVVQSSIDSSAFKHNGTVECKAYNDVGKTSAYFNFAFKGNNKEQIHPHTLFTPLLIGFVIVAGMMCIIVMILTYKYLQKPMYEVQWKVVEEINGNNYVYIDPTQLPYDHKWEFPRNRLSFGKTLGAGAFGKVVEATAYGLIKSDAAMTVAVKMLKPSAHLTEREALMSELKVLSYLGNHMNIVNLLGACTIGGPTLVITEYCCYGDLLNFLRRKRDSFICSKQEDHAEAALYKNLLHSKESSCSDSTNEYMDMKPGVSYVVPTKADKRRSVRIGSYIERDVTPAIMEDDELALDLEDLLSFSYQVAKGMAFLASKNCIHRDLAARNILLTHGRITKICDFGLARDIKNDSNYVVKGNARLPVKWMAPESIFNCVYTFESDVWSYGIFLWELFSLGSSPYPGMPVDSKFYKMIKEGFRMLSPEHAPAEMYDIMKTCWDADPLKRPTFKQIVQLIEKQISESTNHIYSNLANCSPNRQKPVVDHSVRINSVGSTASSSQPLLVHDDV

Row | Structure (SMILES) | Ki [nM]
1 | CC(=O)Nc1ccc(-c2cnc3[nH]cc(-c4oncc4-c4cccc(F)c4F)c3c2)cc1 [Compound 95, N-(4-{3-[4-(2,3-Difluoro-phenyl)-isoxazol-5-yl]-1H-pyrrolo[2,3-b]pyridin-5-yl}-phenyl)-acetamide] | < 200
2 | CN(C)Cc1ccc(-c2cnc3[nH]cc(-c4oncc4-c4cccc(F)c4F)c3c2)nc1 [Compound 84, (6-{3-[4-(2,3-Difluoro-phenyl)-isoxazol-5-yl]-1H-pyrrolo[2,3-b]pyridin-5-yl}-pyridin-3-ylmethyl)-dimethyl-amine] | < 200
3 | CN(C)Cc1ccc(-c2cnc3[nH]cc(-c4oncc4-c4cccc(F)c4F)c3c2)cc1 [Compound 91, (4-{3-[4-(2,3-Difluoro-phenyl)-isoxazol-5-yl]-1H-pyrrolo[2,3-b]pyridin-5-yl}-benzyl)-dimethyl-amine] | < 200

target: T2, JAK3 (Homo sapiens, UniProt P52333); assay: JAK3 inhibition assay (ELISA, Poly (Glu, Ala, Tyr) coated plates); format: biochemical; details: 2 mM ATP, 60 minutes at 30° C.
T2 sequence (P52333 1-1124): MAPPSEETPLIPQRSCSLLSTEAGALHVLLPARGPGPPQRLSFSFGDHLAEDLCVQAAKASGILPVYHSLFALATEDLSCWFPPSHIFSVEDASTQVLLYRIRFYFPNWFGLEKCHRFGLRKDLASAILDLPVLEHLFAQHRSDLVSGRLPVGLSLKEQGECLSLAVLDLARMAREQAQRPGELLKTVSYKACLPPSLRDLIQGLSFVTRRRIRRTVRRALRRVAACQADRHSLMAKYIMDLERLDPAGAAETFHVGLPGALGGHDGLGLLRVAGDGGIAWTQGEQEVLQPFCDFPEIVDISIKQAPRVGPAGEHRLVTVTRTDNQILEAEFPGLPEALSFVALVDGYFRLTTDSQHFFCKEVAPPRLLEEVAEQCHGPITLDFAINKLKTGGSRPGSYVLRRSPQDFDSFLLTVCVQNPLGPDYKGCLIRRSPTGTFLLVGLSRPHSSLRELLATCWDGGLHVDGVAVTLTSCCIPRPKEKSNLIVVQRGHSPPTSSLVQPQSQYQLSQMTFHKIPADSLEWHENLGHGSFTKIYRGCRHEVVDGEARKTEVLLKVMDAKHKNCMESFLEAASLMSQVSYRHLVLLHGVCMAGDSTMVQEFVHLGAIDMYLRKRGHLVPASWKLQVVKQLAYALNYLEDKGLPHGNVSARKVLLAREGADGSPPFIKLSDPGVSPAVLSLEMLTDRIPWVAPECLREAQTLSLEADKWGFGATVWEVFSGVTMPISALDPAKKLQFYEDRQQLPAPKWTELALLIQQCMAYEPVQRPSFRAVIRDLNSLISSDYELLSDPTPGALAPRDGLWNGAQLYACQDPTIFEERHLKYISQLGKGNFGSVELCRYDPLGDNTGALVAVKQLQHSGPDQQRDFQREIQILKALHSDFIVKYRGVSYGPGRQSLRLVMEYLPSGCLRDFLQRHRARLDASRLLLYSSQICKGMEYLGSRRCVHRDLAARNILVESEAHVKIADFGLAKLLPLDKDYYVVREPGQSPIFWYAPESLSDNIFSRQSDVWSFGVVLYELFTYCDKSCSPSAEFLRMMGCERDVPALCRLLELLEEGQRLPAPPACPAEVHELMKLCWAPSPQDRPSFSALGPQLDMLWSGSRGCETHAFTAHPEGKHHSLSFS
Method in brief: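 ELISA on Poly(Glu,Ala,Tyr) 6:3:1-coated plates with 2 mM ATP and 5 mM MgCl2. JAK enzyme started the reaction, run 60 min at 30° C. Phosphotyrosine was detected with HRP-conjugated 4G10 antibody and TMB, read at 450 nm, and IC50 was derived from optical densities.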

Row | Structure (SMILES) | Ki [nM]
4 | CC(=O)Nc1ccc(-c2cnc3[nH]cc(-c4oncc4-c4cccc(F)c4F)c3c2)cc1 [Compound 95, N-(4-{3-[4-(2,3-Difluoro-phenyl)-isoxazol-5-yl]-1H-pyrrolo[2,3-b]pyridin-5-yl}-phenyl)-acetamide] | < 200
5 | CN(C)Cc1ccc(-c2cnc3[nH]cc(-c4oncc4-c4cccc(F)c4F)c3c2)nc1 [Compound 84, (6-{3-[4-(2,3-Difluoro-phenyl)-isoxazol-5-yl]-1H-pyrrolo[2,3-b]pyridin-5-yl}-pyridin-3-ylmethyl)-dimethyl-amine] | < 200
6 | CN(C)Cc1ccc(-c2cnc3[nH]cc(-c4oncc4-c4cccc(F)c4F)c3c2)cc1 [Compound 91, (4-{3-[4-(2,3-Difluoro-phenyl)-isoxazol-5-yl]-1H-pyrrolo[2,3-b]pyridin-5-yl}-benzyl)-dimethyl-amine] | < 200
7 | CS(=O)(=O)n1ccc2cc(-c3cnc4[nH]cc(-c5oncc5-c5cccc(F)c5F)c4c3)cnc21 [Compound 97, 3′-[4-(2,3-Difluoro-phenyl)-isoxazol-5-yl]-1-methanesulfonyl-1H, 1′H-[5,5′]bi[pyrrolo[2,3-b]pyridinyl]] | 200 to 1000
8 | CNc1ccc2c(-c3oncc3-c3cccc(F)c3F)c[nH]c2n1 [Compound 102, {3-[4-(2,3-Difluoro-phenyl)-isoxazol-5-yl]-1H-pyrrolo[2,3-b]pyridin-6-yl}-methyl-amine] | 1000 to 12500
9 | Fc1cccc(Cc2cnoc2-c2c[nH]c3ncccc23)c1F [Compound 36, 3-[4-(2,3-Difluoro-benzyl)-isoxazol-5-yl]-1H-pyrrolo[2,3-b]pyridine] | 1000 to 12500
10 | CN1CCN(C(=O)[C@H]2C[C@H]2c2cnc3[nH]cc(-c4oncc4-c4cccc(F)c4F)c3c2)CC1 (relative stereo) [Compound 143, cis-(2-{3-[4-(2,3-Difluoro-phenyl)-isoxazol-5-yl]-1H-pyrrolo[2,3-b]pyridin-5-yl}-cyclopropyl)-(4-methyl-piperazin-1-yl)-methanone] | 1000 to 12500
11 | Fc1cccc(-c2cnoc2-c2c[nH]c3ncc(-c4ccccc4)cc23)c1F [Compound 58, 3-[4-(2,3-Difluoro-phenyl)-isoxazol-5-yl]-5-phenyl-1H-pyrrolo[2,3-b]pyridine] | < 200
12 | CN(C)C(=O)c1ccc(-c2cnc3[nH]cc(-c4oncc4-c4cccc(F)c4F)c3c2)nc1 [Compound 79, 6-{3-[4-(2,3-Difluoro-phenyl)-isoxazol-5-yl]-1H-pyrrolo [2,3-b]pyridin-5-yl}-N,N-dimethyl-nicotinamide] | < 200
13 | Fc1cccnc1-c1cnc2[nH]cc(-c3oncc3-c3cccc(F)c3F)c2c1 [Compound 74, 3-[4-(2,3-Difluoro-phenyl)-isoxazol-5-yl]-5-(3-fluoro-pyridin-2-yl)-1H-pyrrolo[2,3-b]pyridine] | 200 to 1000
14 | C=Cc1cnc2[nH]cc(-c3oncc3-c3cccc(F)c3F)c2c1 [Compound 66, 3-[4-(2,3-Difluoro-phenyl)-isoxazol-5-yl]-5-vinyl-1H-pyrrolo[2,3-b]pyridine] | < 200
15 | O=c1[nH]ccc2c(-c3oncc3-c3cccc(F)c3F)c[nH]c12 [Compound 145, 3-[4-(2,3-Difluoro-phenyl)-isoxazol-5-yl]-1,6-dihydro-pyrrolo[2,3-c]pyridin-7-one] | 200 to 1000
16 | Cc1noc(-c2c[nH]c3ncccc23)c1-c1cccc(F)c1F [Compound 134, 3-[4-(2,3-Difluoro-phenyl)-3-methyl-isoxazol-5-yl]-1H-pyrrolo[2,3-b]pyridine] | 200 to 1000
17 | Fc1cccc(-c2cnoc2-c2c[nH]c3ncc(Br)cc23)c1F [Compound 37, 5-Bromo-3-[4-(2,3-difluoro-phenyl)-isoxazol-5-yl]-1H-pyrrolo[2,3-b]pyridine] | < 200
18 | CC(=O)N1CCC(c2cnc3[nH]cc(-c4oncc4-c4cccc(F)c4F)c3c2)CC1 [Compound 63, 1-(4-{3-[4-(2,3-Difluoro-phenyl)-isoxazol-5-yl]-1H-pyrrolo[2,3-b]pyridin-5-yl}-piperidin-1-yl)-ethanone] | 200 to 1000
19 | CN(C)Cc1cc(Cl)nc(-c2cnc3[nH]cc(-c4oncc4-c4cccc(F)c4F)c3c2)c1 [Compound 81, (2-Chloro-6-{3-[4-(2,3-difluoro-phenyl)-isoxazol-5-yl]-1H-pyrrolo[2,3-b]pyridin-5-yl}-pyridin-4-ylmethyl)-dimethyl-amine] | 200 to 1000
20 | c1cnc2[nH]cc(-c3oncc3C3CCCCC3)c2c1 [Compound 47, 3-(4-Cyclohexyl-isoxazol-5-yl)-1H-pyrrolo[2,3-b]pyridine] | 200 to 1000
21 | CN(C)c1ccnc2[nH]cc(-c3oncc3-c3cccc(F)c3F)c12 [Compound 56, {3-[4-(2,3-Difluoro-phenyl)-isoxazol-5-yl]-1H-pyrrolo[2,3-b]pyridin-4-yl}-dimethyl-amine] | 200 to 1000
22 | CS(=O)(=O)Nc1ccc(-c2cnc3[nH]cc(-c4oncc4-c4cccc(F)c4F)c3c2)cc1 [Compound 98, N-(4-{3-[4-(2,3-Difluoro-phenyl)-isoxazol-5-yl]-1H-pyrrolo[2,3-b]pyridin-5-yl}-phenyl)-methane sulfonamide] | < 200
23 | Clc1cccc(-c2cnoc2-c2c[nH]c3ncccc23)c1Cl [Compound 2, 3-[4-(2,3-Dichloro-phenyl)-isoxazol-5-yl]-1H-pyrrolo[2,3-b]pyridine] | 200 to 1000
24 | Fc1cccc(-c2cnoc2-c2c[nH]c3ncc(-c4ncccn4)cc23)c1F [Compound 75, 3-[4-(2,3-Difluoro-phenyl)-isoxazol-5-yl]-5-pyrimidin-2-yl-1H-pyrrolo[2,3-b]pyridine] | < 200
25 | CN(C)c1ccnc(-c2cnc3[nH]cc(-c4oncc4-c4cccc(F)c4F)c3c2)c1 [Compound 80, (2-{3-[4-(2,3-Difluoro-phenyl)-isoxazol-5-yl]-1H-pyrrolo[2,3-b]pyridin-5-yl}-pyridin-4-yl)-dimethyl-amine] | 1000 to 12500
26 | Fc1cccc(-c2cnoc2-c2c[nH]c3ncc(/C=C/n4cncn4)cc23)c1F [Compound 133, 3-[4-(2,3-Difluoro-phenyl)-isoxazol-5-yl]-5-(2-[1,2,4]triazol-1-yl-vinyl)-1H-pyrrolo[2,3-b]pyridine] | < 200
27 | Nc1[nH]c2ncccc2c1-c1oncc1-c1cccc(F)c1F [Compound 152] | 1000 to 12500
28 | Fc1c(Cl)cccc1-c1cnoc1-c1c[nH]c2ncccc12 [Compound 42, 3-[4-(3-Chloro-2-fluoro-phenyl)-isoxazol-5-yl]-1H-pyrrolo[2,3-b]pyridine] | 200 to 1000
29 | N#CCC(=O)N1CCC(c2cnc3[nH]cc(-c4oncc4-c4cccc(F)c4F)c3c2)CC1 [Compound 64, 3-(4-{3-[4-(2,3-Difluoro-phenyl)-isoxazol-5-yl]-1H-pyrrolo[2,3-b]pyridin-5-yl}-piperidin-1-yl)-3-oxo-propionitrile] | 200 to 1000
